Usually IC50 stands for the midpoint of a concentration-inhibition curve.

The test has as its target T1, human EP3 receptor (Homo sapiens, UniProt P43115).
T1 construct: expressed in transfected cells; host or cells: CHO K1 (Chinese Hamster Ovary), stably co-transfected with Galpha16 and mitochondrial clytin
T1 sequence (P43115 1-390): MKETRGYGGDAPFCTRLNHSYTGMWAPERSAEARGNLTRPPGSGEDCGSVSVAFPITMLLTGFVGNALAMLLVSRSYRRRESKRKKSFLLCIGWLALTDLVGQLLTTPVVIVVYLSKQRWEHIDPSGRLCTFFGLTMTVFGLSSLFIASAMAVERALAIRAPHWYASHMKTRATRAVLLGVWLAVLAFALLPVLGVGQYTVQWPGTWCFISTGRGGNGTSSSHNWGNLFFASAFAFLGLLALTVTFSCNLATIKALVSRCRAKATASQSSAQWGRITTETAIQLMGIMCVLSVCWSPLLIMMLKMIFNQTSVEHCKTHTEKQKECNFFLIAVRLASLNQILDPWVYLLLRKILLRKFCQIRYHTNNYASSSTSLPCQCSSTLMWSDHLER
The experiment in a line: Cellular in vitro assay for determining EP3 receptor activity (human EP3 cell line, sulprostone-stimulated calcium luminescence). The test is classed as cell-based. The note with it: CHO cells expressing human EP3 and mitochondrial Clytin; antagonist mode, sulprostone at EC50; read-out: EP3 CHO mtCLY ANTAG IC50. The essentials: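 Antagonist activity was measured as inhibition of the luminescent calcium signal elicited by EC50 sulprostone, following 10 min compound pretreatment. The cell line was recombinant CHO K1 co-expressing human EP3, Gα16 and the photoprotein Clytin, reconstituted with coelenterazine.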
For the molecule `Cc1c(C(=O)NC(C)c2ccc(F)cc2)nn2c(C)c(-c3ccc4ccccc4c3)[nH]c(=O)c12` (stereo not drawn) [Example 3-21, N-[1-(4-Fluorophenyl)ethyl]-3,7-dimethyl-6-(2-naphthyl)-4-oxo-5H-pyrazolo[1,5-a]pyrazine-2-carboxamide], the IC50 was found to be 1.8 nM.
For `O=C(NCc1ccc(F)c(F)c1)c1cc2c(=O)[nH]c(-c3ccc4ccccc4c3)cn2n1` [Example 2-33, N-(3,4-Difluorbenzyl)-6-(2-naphthyl)-4-oxo-4,5-dihydropyrazolo[1,5-a]pyrazine-2-carboxamide], the IC50 came out at 1.5 nM.
Turning to `O=C(N[C@H](CN1CCOCC1)c1ccc(F)cc1)c1cc2c(=O)[nH]c(-c3ccc4ccccc4c3)cn2n1` [6-67], the IC50 came out at 1.58 nM.
In the case of `Cc1ccc(-c2cn3nc(C(=O)NC(C)c4ccc(O)cc4)cc3c(=O)[nH]2)cc1C` (stereo not drawn) [Example 1-137, 6-(3,4-Dimethylphenyl)-N-[1-(4-hydroxphenyl)ethyl]-4-oxo-5H-pyrazolo[1,5-a]pyrazine-2-carboxamide] it was 2.9 nM; in that of `CC(NC(=O)c1nn2cc(-c3ccc4ccccc4c3)[nH]c(=O)c2c1C#N)c1ccc(Cl)c(Cl)c1` (stereo not drawn) [Example 3-54, 3-Cyano-N-[1-(3,4-dichlorophenyl)ethyl]-6-(2-naphthyl)-4-oxo-5H-pyrazolo[1,5-a]pyrazine-2-carboxamide], 6.95 nM.
In the case of `C[C@H](NC(=O)c1nn2cc(-c3ccc(Cl)c(Cl)c3)[nH]c(=O)c2c1C1CC(F)(F)C1)C1CC1` [6-553], the IC50 turned out to be 2.8 nM.
Take `Cc1ccc(-c2cn3nc(C(=O)NCC(C)(N)C(F)(F)F)c(C(F)(F)F)c3c(=O)[nH]2)cc1Cl` (racemic) [6-169]: the IC50 is 4.05 nM.
Turning to `Cc1cccc2ncc(-c3cn4nc(C(=O)Nc5ccnn5C(C)C)c(C(C)C)c4c(=O)[nH]3)cc12` [Example 4-15, 6-(5-Methylquinolin-3-yl)-4-oxo-3-(propan-2-yl)-N-[1-(propan-2-yl)-1H-pyrazol-5-yl]-4,5-dihydropyrazolo[1,5-a]pyrazine-2-carboxamide], the IC50 amounted to 2.9 nM.
Turning to `Cc1ccc(-c2cn3nc(C(=O)NC4(c5ccc(F)cc5)CNC4)c(C(F)(F)F)c3c(=O)[nH]2)cc1C` [Example 1-175, 6-(3,4-Dimethylphenyl)-N-[3-(4-fluorophenyl)azetidin-3-yl]-4-oxo-3-(trifluoromethyl)-4,5-dihydropyrazolo[1,5-a]pyrazine-2-carboxamide-hydrogen chloride (1/1)], the half-inhibitory concentration (IC50) stood at 5 nM.
In the case of `Cc1ccc(-c2cn3nc(C(=O)N[C@H](CCO)c4ccc(F)cc4)cc3c(=O)[nH]2)cc1Cl` [6-122] it was 0.88 nM; in that of `Cc1cc(-c2cn3nc(C(=O)N[C@H](CCO)c4ccc(F)cc4)c(C(F)(F)F)c3c(=O)[nH]2)ccc1Cl` [6-233], 0.37 nM; in that of `Cc1cccc2ncc(-c3cn4nc(C(=O)NCCOCC(F)(F)F)c(C(C)C)c4c(=O)[nH]3)cc12` [Example 4-39, 6-(5-Methylquinolin-3-yl)-4-oxo-3-(propan-2-yl)-N-[2-(2,2,2-trifluoroethoxy)ethyl]-4,5-dihydropyrazolo[1,5-a]pyrazine-2-carboxamide], 1.85 nM.
Regarding `Cc1cccc2ncc(-c3cn4nc(C(=O)NC(C)CC5CC5)c(C(C)C)c4c(=O)[nH]3)cc12` (stereo not drawn) [Example 4-18, N-(1-Cyclopropylpropan-2-yl)-3-isopropyl-6-(5-methylquinolin-3-yl)-4-oxo-4,5-dihydropyrazolo[1,5-a]pyrazine-2-carboxamide], the IC50 turned out to be 1.05 nM.
As to `COC[C@H](Cc1ccccc1)NC(=O)c1cc2c(=O)[nH]c(-c3ccc4ccccc4c3)cn2n1` [Example 2-25, N-[(2S)-1-Methoxy-3-phenylpropan-2-yl]-6-(2-naphthyl)-4-oxo-4,5-dihydropyrazolo[1,5-a]pyrazine-2-carboxamide], the IC50 turned out to be 2.9 nM.
Consider `Cc1c(C(=O)N[C@H]2CCc3ccccc32)nn2c(C)c(-c3ccc4ccccc4c3)[nH]c(=O)c12` [Example 3-29, N-[(7S)-2,3-Dihydro-1H-inden-1-yl]-3,7-dimethyl-6-(naphthalen-2-yl)-4-oxo-4,5-dihydropyrazolo[1,5-a]pyrazine-2-carboxamide], for which the half-maximal inhibitory concentration (IC50) amounted to 4.65 nM.

The values are drawn from patent publication US20220324865A1 (Bayer Aktiengesellschaft, priority 2018, published 2022).
